Experimental data reported in ChEMBL document CHEMBL1130043, “Chemometric methodologies in a quantitative structure-activity relationship study: the antibacterial activity of 6-aminoquinolones” (1997).

What was measured:
Assay type in all cases: functional
[1] = system: Pseudomonas aeruginosa; assay: Antibacterial activity against Pseudomonas aeruginosa ATCC 9027(Gram negative) strain.
[2] = system: Staphylococcus epidermidis; assay: Antibacterial activity against Staphylococcus epidermidis HCF Berset C (Gram positive) strain.
[3] = system: Staphylococcus aureus; assay: Antibacterial activity against Staphylococcus aureus ATCC 6538 (Gram positive) strain.
[4] = system: Staphylococcus epidermidis; assay: The compound was tested in vitro for antibacterial activity against Staphylococcus epidermidis CPHL A2 (Gram positive) strain.
[5] = system: Klebsiella pneumoniae; assay: Antibacterial activity against Klebsiella pneumoniae ATCC 10031 (Gram negative) strain.
[6] = system: Staphylococcus aureus; assay: Antibacterial activity against Staphylococcus aureus MPR 5 (Gram positive) strain.
[7] = system: Enterobacter cloacae; assay: Antibacterial activity against Enterobacter cloacae OMNFI 174 (Gram negative) strain.
[8] = system: Escherichia coli; assay: Antibacterial activity against Escherichia coli ATCC 8739(Gram negative) strain.
[9] = system: Acinetobacter calcoaceticus; assay: Antibacterial activity against Acinetobacter calcoaceticus OSMPV 113 (Gram negative) strain.
[10] = system: Providencia stuartii; assay: Antibacterial activity against Providencia stuartii CNUR 5(Gram negative) strain.
[11] = system: Escherichia coli; assay: Antibacterial activity against Escherichia coli ISF 432(Gram negative) strain.
[12] = system: Enterococcus faecalis; assay: Antibacterial activity against Streptococcus faecalis LEP Br (Gram positive) strain.
[13] = system: Shigella; assay: Antibacterial activity against Shigella enteritidis (Gram negative) strain.
[14] = system: Staphylococcus epidermidis; assay: Antibacterial activity against Staphylococcus epidermidis CPHL A2 (Gram positive) strain, activity is expressed as log2MIC.
[15] = system: Staphylococcus epidermidis; assay: The compound was tested in vitro for antibacterial activity against Staphylococcus epidermidis CPHL A2 (Gram positive) strain
[16] = system: Pseudomonas aeruginosa; assay: The compound was tested for in vitro antibacterial activity against Pseudomonas aeruginosa ATCC 9027(Gram negative) strain.
[17] = system: Acinetobacter calcoaceticus; assay: The compound was tested for in vitro antibacterial activity against Acinetobacter calcoaceticus OSMPV 113(Gram negative) strain.
[18] = system: Pseudomonas aeruginosa; assay: The compound was tested for in vitro antibacterial activity against Pseudomonas aeruginosa ATCC 9027 (Gram negative) strain.
[19] = system: Staphylococcus aureus; assay: The compound was tested for in vitro antibacterial activity against Staphylococcus aureus MPR 5 (Gram positive) strain.
[20] = system: Escherichia coli; assay: The compound was tested for in vitro antibacterial activity against Escherichia coli ATCC 8739 (Gram negative) strain.
[21] = system: Staphylococcus aureus; assay: The compound was tested for in vitro antibacterial activity against Staphylococcus aureus ATCC 6538 (Gram positive) strain.
[22] = system: Acinetobacter calcoaceticus; assay: The compound was tested for in vitro antibacterial activity against Acinetobacter calcoaceticus OSMPV 113 (Gram negative) strain.
[23] = system: Escherichia coli; assay: The compound was tested for in vitro antibacterial activity against Escherichia coli ISF 432 (Gram negative) strain.

Structure (SMILES): Nc1cc2c(=O)c(C(=O)O)cn(C3CC3)c2cc1Cl
- Log2 MIC [1]: 0
- Log2 MIC [2]: 1
- Log2 MIC [3]: 0
- Log2 MIC [4]: 0
- Log2 MIC [5]: 6
- Log2 MIC [6]: 0
- Log2 MIC [7]: 3
- Log2 MIC [8]: 6
- Log2 MIC [9]: 0
- Log2 MIC [10]: 1
- Log2 MIC [11]: 6
- Log2 MIC [12]: 0
- Log2 MIC [13]: 3

Structure (SMILES): CN1CCN(c2cc3c(cc2N)c(=O)c(C(=O)O)cn3C(C)(C)C)CC1
- Log2 MIC [1]: 5
- Log2 MIC [2]: 5
- Log2 MIC [3]: 6
- Log2 MIC [5]: 11
- Log2 MIC [6]: 6
- Log2 MIC [7]: 7
- Log2 MIC [14]: 6
- Log2 MIC [8]: 11
- Log2 MIC [9]: 5
- Log2 MIC [10]: 5
- Log2 MIC [11]: 11
- Log2 MIC [12]: 2
- Log2 MIC [13]: 7

Structure (SMILES): Cc1c(N2Cc3ccccc3C2)c(N)cc2c(=O)c(C(=O)O)cn(C3CC3)c12
- Log2 MIC [1]: 8
- Log2 MIC [2]: 12
- Log2 MIC [3]: 13
- Log2 MIC [5]: 11
- Log2 MIC [6]: 13
- Log2 MIC [7]: 9
- Log2 MIC [8]: 13
- Log2 MIC [10]: 11
- Log2 MIC [15]: 13
- Log2 MIC [11]: 13
- Log2 MIC [12]: 9
- Log2 MIC [13]: 9

Structure (SMILES): Cc1c(N2CCCC2)c(N)cc2c(=O)c(C(=O)O)cn(C3CC3)c12
- Log2 MIC [1]: 0
- Log2 MIC [2]: 3
- Log2 MIC [3]: 5
- Log2 MIC [5]: 8
- Log2 MIC [6]: 5
- Log2 MIC [7]: 1
- Log2 MIC [8]: 2
- Log2 MIC [9]: 3
- Log2 MIC [10]: 1
- Log2 MIC [15]: 3
- Log2 MIC [11]: 7
- Log2 MIC [12]: 1
- Log2 MIC [13]: 1

Structure (SMILES): Nc1cc2c(=O)c(C(=O)O)cn(C3CC3)c2cc1N1CCC(N)C1 (stereo not given)
- Log2 MIC [1]: 3
- Log2 MIC [2]: 0
- Log2 MIC [3]: 0
- Log2 MIC [5]: 7
- Log2 MIC [6]: 0
- Log2 MIC [7]: 3
- Log2 MIC [8]: 7
- Log2 MIC [9]: 0
- Log2 MIC [10]: 0
- Log2 MIC [15]: 0
- Log2 MIC [11]: 8
- Log2 MIC [12]: 0
- Log2 MIC [13]: 3

Structure (SMILES): CN1CCN(c2nc3c(c(N)c2N)c(=O)c(C(=O)O)cn3C2CC2)CC1
- Log2 MIC [1]: 4
- Log2 MIC [2]: 6
- Log2 MIC [3]: 6
- Log2 MIC [5]: 13
- Log2 MIC [6]: 6
- Log2 MIC [7]: 9
- Log2 MIC [8]: 9
- Log2 MIC [9]: 8
- Log2 MIC [10]: 8
- Log2 MIC [15]: 6
- Log2 MIC [11]: 13
- Log2 MIC [12]: 4
- Log2 MIC [13]: 8

Structure (SMILES): Cc1c(N2CCSCC2)c(N)cc2c(=O)c(C(=O)O)cn(C3CC3)c12
- Log2 MIC [1]: 7
- Log2 MIC [2]: 10
- Log2 MIC [3]: 11
- Log2 MIC [5]: 12.5
- Log2 MIC [6]: 11
- Log2 MIC [7]: 9
- Log2 MIC [8]: 9
- Log2 MIC [9]: 10
- Log2 MIC [10]: 6
- Log2 MIC [15]: 10
- Log2 MIC [11]: 12
- Log2 MIC [12]: 8
- Log2 MIC [13]: 10

Structure (SMILES): Cc1c(N2CCNC(C)C2)c(N)cc2c(=O)c(C(=O)O)cn(C3CC3)c12 (stereo not given)
- Log2 MIC [1]: 7
- Log2 MIC [2]: 7
- Log2 MIC [3]: 7
- Log2 MIC [5]: 12
- Log2 MIC [6]: 7
- Log2 MIC [7]: 10
- Log2 MIC [8]: 10
- Log2 MIC [9]: 6
- Log2 MIC [10]: 6
- Log2 MIC [15]: 7
- Log2 MIC [11]: 12
- Log2 MIC [12]: 5
- Log2 MIC [13]: 11

Structure (SMILES): O=C(O)c1cn(C2CC2)c2cc(N3CCNCC3)c(F)cc2c1=O [CIPROFLOXACIN]
- Log2 MIC [1]: 11
- Log2 MIC [16]: 11
- Log2 MIC [5]: 12
- Log2 MIC [14]: 11
- Log2 MIC [9]: 11
- Log2 MIC [10]: 11
- Log2 MIC [15]: 11
- Log2 MIC [12]: 8
- Log2 MIC [17]: 11

Structure (SMILES): CN1CCN(c2c(F)cc3c(=O)c(C(=O)O)cn4c3c2SCC4)CC1 [RUFLOXACIN]
- Log2 MIC [2]: 7
- Log2 MIC [18]: 5
- Log2 MIC [5]: 9
- Log2 MIC [7]: 8
- Log2 MIC [14]: 8
- Log2 MIC [19]: 8
- Log2 MIC [20]: 9
- Log2 MIC [10]: 6
- Log2 MIC [21]: 8
- Log2 MIC [22]: 7
- Log2 MIC [12]: 5
- Log2 MIC [13]: 10
- Log2 MIC [23]: 9
